Like-named read-outs stand apart in the source and are kept apart here.
Target: Human Cav3.1 (Homo sapiens (Human), UniProt O43497)
Assay: Human Cav3.1 calcium channel patch clamp assay (SyncroPatch 384PE, HEK-293 natClytin/TASK1+Cav3.1 cell line)
Format: cell-based
Experimental: Pulse generation and data collection were performed with PatchController384 V1.3.0 and DataController384 V1.2.1 (Nanion Technologies). Off-line analysis was performed using Excel and Graphpad Prism (V 8.4.2) with complete data files uploaded to Dotmatics. The access resistance and apparent membrane capacitance were estimated using built-in protocols. Current was recorded in whole cell configuration from a population of cells. The cells were lifted, triturated, and resuspended at 800,000 cells/ml. The cells were allowed to recover in the cell hotel prior to experimentation. Currents were recorded at room temperature. The external solution contained the following (in mM): NaCl 80, NMDG 60, KCl 4, MgCl2 1, CaCl2 6, glucose 5 and HEPES 10 (pH=7.4, Osmolarity ˜300 mOsm). The extracellular solution was used as the wash, reference and compound delivery solution. […] The compound plate was created at 2× concentrated in the extracellular solution. The compound was diluted to 1:2 when added to the recording well. The amount of DMSO in the extracellular solution was held constant at the level used for the highest tested concentration. For the voltage clamp experiments on Cav3.1, data were sampled at 10 KHz. After establishment of the seal and the passage in the whole cell configuration, the cells were held at −120 mV. Cav3.1 current was evoked using a 100 ms step to −20 mV (to measure resting state block), followed by a 1600 ms step to −65 mV and a second 100 ms step to −20 mV (to measure voltage dependent block). The voltage protocol was applied every 15 seconds in the absence and in the presence of the compounds under investigation. […] Current amplitude (pA) was measured in the peak 1 and 2. The average of last 3 sweeps of each liquid period (vehicle, compound under investigation, full block) was calculated. Nickel-sensitive current was used to calculate the % of inhibition in the presence of the compound under investigation.
Pulse generation and data collection were performed with PatchController384 V1.3.0 and DataController384 V1.2.1 (Nanion Technologies). Off-line analysis was performed using Excel and Graphpad Prism (V 8.4.2) with complete data files uploaded to Dotmatics. The access resistance and apparent membrane capacitance were estimated using built-in protocols. Current was recorded in whole cell configuration from a population of cells.
The cells were lifted, triturated, and resuspended at 800,000 cells/ml. The cells were allowed to recover in the cell hotel prior to experimentation. Currents were recorded at room temperature. The external solution contained the following (in mM): NaCl 80, NMDG 60, KCl 4, MgCl2 1, CaCl2 6, glucose 5 and HEPES 10 (pH=7.4, Osmolarity ˜300 mOsm). The extracellular solution was used as the wash, reference and compound delivery solution.
The compound plate was created at 2× concentrated in the extracellular solution. The compound was diluted to 1:2 when added to the recording well. The amount of DMSO in the extracellular solution was held constant at the level used for the highest tested concentration. For the voltage clamp experiments on Cav3.1, data were sampled at 10 KHz. After establishment of the seal and the passage in the whole cell configuration, the cells were held at −120 mV. Cav3.1 current was evoked using a 100 ms step to −20 mV (to measure resting state block), followed by a 1600 ms step to −65 mV and a second 100 ms step to −20 mV (to measure voltage dependent block). The voltage protocol was applied every 15 seconds in the absence and in the presence of the compounds under investigation. […] Current amplitude (pA) was measured in the peak 1 and 2. The average of last 3 sweeps of each liquid period (vehicle, compound under investigation, full block) was calculated. Nickel-sensitive current was used to calculate the % of inhibition in the presence of the compound under investigation.

[1] = voltage dependent block (VDB), read-out: Cav3.1 (VDB) IC50
[2] = patch clamp, HEK-293 natClytin/TASK1+Cav3.1 cells, class symbols, read-out: Human Cav3.1 IC50

Human Cav3.1, sequence (O43497 whole entry): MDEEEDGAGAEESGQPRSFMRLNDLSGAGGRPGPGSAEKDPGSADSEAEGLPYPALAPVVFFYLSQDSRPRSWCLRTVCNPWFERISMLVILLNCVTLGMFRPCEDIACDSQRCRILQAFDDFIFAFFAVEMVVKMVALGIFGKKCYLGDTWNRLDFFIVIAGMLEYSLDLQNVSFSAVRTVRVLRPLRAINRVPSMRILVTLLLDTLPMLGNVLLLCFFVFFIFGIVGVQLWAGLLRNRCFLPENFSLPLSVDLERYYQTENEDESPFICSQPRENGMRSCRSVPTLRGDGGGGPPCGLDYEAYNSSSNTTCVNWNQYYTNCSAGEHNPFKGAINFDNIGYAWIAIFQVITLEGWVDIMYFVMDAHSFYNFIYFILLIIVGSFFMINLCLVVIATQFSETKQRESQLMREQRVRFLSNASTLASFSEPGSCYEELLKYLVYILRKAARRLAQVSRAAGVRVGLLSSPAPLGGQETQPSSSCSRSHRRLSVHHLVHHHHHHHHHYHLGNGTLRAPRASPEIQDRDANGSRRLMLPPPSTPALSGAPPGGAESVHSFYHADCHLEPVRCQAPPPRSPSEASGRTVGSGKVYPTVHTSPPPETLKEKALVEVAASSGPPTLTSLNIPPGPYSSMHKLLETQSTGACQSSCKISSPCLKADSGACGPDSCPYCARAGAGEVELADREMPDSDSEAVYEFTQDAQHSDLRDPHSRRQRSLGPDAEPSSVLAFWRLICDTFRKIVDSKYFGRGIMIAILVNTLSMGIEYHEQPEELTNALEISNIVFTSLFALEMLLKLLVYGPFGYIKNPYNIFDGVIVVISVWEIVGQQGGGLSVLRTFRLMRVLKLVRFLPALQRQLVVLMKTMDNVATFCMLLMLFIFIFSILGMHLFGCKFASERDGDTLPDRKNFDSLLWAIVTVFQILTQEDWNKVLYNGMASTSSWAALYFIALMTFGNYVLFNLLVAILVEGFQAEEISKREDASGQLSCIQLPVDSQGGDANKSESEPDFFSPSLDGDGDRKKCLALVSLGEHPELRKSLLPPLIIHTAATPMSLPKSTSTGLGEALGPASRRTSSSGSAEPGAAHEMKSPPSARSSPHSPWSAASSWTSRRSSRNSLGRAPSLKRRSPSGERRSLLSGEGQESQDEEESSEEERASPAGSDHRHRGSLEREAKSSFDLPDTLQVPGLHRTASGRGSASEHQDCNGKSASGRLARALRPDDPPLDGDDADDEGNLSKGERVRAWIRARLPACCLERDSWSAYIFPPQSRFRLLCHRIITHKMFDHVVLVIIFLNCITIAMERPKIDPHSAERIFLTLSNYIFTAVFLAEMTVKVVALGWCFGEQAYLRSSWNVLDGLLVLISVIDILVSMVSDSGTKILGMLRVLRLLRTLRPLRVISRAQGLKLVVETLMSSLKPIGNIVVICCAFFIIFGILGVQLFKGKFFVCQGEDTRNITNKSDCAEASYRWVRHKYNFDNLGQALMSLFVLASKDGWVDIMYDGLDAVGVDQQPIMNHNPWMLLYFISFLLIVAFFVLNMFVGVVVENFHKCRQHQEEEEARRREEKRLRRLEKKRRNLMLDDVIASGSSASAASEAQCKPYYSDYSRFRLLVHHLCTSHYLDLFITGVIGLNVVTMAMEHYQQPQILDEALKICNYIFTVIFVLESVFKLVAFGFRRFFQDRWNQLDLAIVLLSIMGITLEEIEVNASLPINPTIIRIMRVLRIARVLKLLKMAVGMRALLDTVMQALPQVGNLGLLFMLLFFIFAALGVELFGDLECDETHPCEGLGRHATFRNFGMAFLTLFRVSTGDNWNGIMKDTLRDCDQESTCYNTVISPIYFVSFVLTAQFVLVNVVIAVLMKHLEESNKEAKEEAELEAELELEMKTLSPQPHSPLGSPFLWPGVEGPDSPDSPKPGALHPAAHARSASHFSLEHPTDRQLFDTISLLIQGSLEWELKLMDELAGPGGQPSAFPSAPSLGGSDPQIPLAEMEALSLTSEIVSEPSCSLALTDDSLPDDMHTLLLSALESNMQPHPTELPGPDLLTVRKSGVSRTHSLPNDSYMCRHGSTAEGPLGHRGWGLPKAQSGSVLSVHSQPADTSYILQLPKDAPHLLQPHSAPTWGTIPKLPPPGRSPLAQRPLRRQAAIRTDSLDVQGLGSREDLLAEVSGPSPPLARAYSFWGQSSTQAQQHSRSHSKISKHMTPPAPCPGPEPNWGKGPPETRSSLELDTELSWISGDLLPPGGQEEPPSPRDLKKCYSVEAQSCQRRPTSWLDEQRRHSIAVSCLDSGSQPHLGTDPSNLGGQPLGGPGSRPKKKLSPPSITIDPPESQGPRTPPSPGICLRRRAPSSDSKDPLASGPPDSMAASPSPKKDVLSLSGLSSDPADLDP

Row | SMILES | IC50 [1] | IC50 [2]
1 | COc1cc(F)cc(NC(=O)C2CCC3(CC2)CN(CC2(C#N)CCC(F)(F)CC2)C3)c1 [Example 97] | 550 nM | –
2 | N#CC1(CN2CC3(CCC(C(=O)Nc4cc(F)cc(Cl)c4)CC3)C2)CCCCC1 [Example 98] | 352 nM | –
3 | CC(C)(C)NC(=O)CN1CC2(CCC(C(=O)Nc3cc(F)cc(C(F)(F)F)c3)CC2)C1 [Example 4] | 254 nM | < 1000 nM
4 | O=C(CN1CC2(CCC(C(=O)Nc3cc(F)cc(Cl)c3)CC2)C1)OC1CCCC1 [Example 57] | 709 nM | –
5 | COc1cc(NC(=O)C2CCC3(CC2)CN(CC(=O)NC(C)(C)C)C3)ccc1F [Example 156] | 300 nM | –
6 | CC1(NC(=O)CN2CC3(CCC(C(=O)Nc4cc(F)cc(C(F)F)c4)CC3)C2)CCC1 [Example 29] | 102 nM | < 1000 nM
7 | CC(C)(C)OC(=O)CN1CC2(CCC(C(=O)Nc3cc(F)cc(Cl)c3)CC2)C1 [Example 56] | 513 nM | –
8 | O=C(CN1CC2(CCC(C(=O)Nc3cc(F)cc(Cl)c3)CC2)C1)NC1(C(F)(F)F)CC1 [Example 58] | 59.7 nM | –
9 | CC1(OC(=O)NCCN2CC3(CCC(C(=O)Nc4cc(F)cc(Cl)c4)CC3)C2)CC1 [Example 81] | 307 nM | –
10 | O=C(Nc1cc(F)cc(Cl)c1)C1CCC2(CC1)CN(CCS(=O)(=O)c1ccccc1)C2 [Example 91] | 576 nM | –
11 | N#CC1(CN2CC3(CCC(C(=O)Nc4cc(F)cc(Cl)c4)CC3)C2)CC1 [Example 118] | 529 nM | –
12 | CC(C)(NC(=O)CN1CC2(CCC(C(=O)Nc3cccc(C(F)F)c3)CC2)C1)C(F)(F)F [Example 65] | 430 nM | –
13 | Cc1cc(NC(=O)C2CCC3(CC2)CN(CC(=O)NC(C)(C)C)C3)nn1-c1ccccc1 [Example 6] | 2280 nM | 1000 to 10000 nM
14 | COc1cc(F)cc(NC(=O)C2CCC3(CC2)CN(CC2(C#N)CC2)C3)c1 [Example 138] | 2270 nM | –
15 | CCC(C)(C)NC(=O)CN1CC2(CCC(C(=O)Nc3cc(F)cc(C(F)F)c3)CC2)C1 [Example 27] | 182 nM | < 1000 nM
16 | N#CC1(CN2CC3(CCC(C(=O)Nc4cc(F)cc(C(F)F)c4)CC3)C2)CCCCC1 [Example 94] | 612 nM | –
17 | O=C(CN1CC2(CCC(C(=O)Nc3cccc(OC(F)F)c3)CC2)C1)NC1(C(F)(F)F)CCC1 [Example 109] | 231 nM | –
18 | O=C(CN1CC2(CCC(CNC(=O)c3cc(F)cc(Cl)c3)CC2)C1)NC1(C(F)(F)F)CC1 [Example 143] | 373 nM | –
19 | N#CC1(CN2CC3(CCC(C(=O)Nc4cc(Cl)cc(Cl)c4)CC3)C2)CC1 [Example 128] | 572 nM | –

Row | SMILES | IC50 [1] | IC50 [2]
20 | CC(C)(C)C(O)CN1CC2(CCC(C(=O)NC34CC5CC(CC(C5)C3)C4)CC2)C1 (stereo not shown) [Example 152] | 583 nM | –
21 | N#CC1(CN2CC3(CCC(C(=O)Nc4cccc(Cl)c4)CC3)C2)CCCCC1 [Example 103] | 544 nM | –
22 | COc1cc(Cl)cc(NC(=O)C2CCC3(CC2)CN(CC(=O)NC2(C(F)(F)F)CC2)C3)c1 [Example 160] | < 78.2 nM | –
23 | CC(C)(NC(=O)CN1CC2(CCC(CNC(=O)c3cccc(Cl)c3)CC2)C1)C(F)(F)F [Example 146] | 435 nM | –
24 | O=C(Nc1cc(F)cc(Cl)c1)C1CCC2(CC1)CN(CC(F)(F)C1CCCC1)C2 [Example 78] | 1070 nM | –
25 | CC(C)(CCN1CC2(CCC(C(=O)Nc3cc(F)cc(C(F)F)c3)CC2)C1)C(F)(F)F [Example 36] | 327 nM | < 1000 nM
26 | O=C(Nc1cccc(Cl)c1)C1CCC2(CC1)CN(CCS(=O)(=O)c1ccccc1)C2 [Example 102] | 497 nM | –
27 | CC(C)(C)NC(=O)CN1CC2(CCC(C(=O)Nc3cc(F)cc(C(F)F)c3)CC2)C1 [Example 9] | 78.5 nM | < 1000 nM
28 | O=C(CN1CC2(CCC(C(=O)Nc3cc(F)cc(C(F)F)c3)CC2)C1)NC1CCCC1 [Example 32] | 139 nM | < 1000 nM
29 | COc1cc(F)cc(NC(=O)C2CCC3(CC2)CN(CC(=O)NC2(C(F)(F)F)CCC2)C3)c1 [Example 84] | 110 nM | –
30 | COc1cccc(NC(=O)C2CCC3(CC2)CN(CC(=O)NC(C)(C)C)C3)c1 [Example 75] | 1080 nM | –
31 | O=C(CN1CC2(CCC(C(=O)Nc3cc(F)cc(Cl)c3)CC2)C1)NC1(C(F)F)CC1 [Example 140] | 283 nM | –
32 | CC(C)(C)CCN1CC2(CCC(C(=O)Nc3cc(F)cc(Cl)c3)CC2)C1 [Example 161] | 252 nM | –
33 | [2H]C([2H])([2H])C(NC(=O)CN1CC2(CCC(C(=O)Nc3cc(F)cc(OC)c3)CC2)C1)(C([2H])([2H])[2H])C([2H])([2H])[2H] [Example 113] | 415 nM | –
34 | O=C(Nc1cc(F)cc(C(F)F)c1)C1CCC2(CC1)CN(CCNC(=O)C1(C(F)(F)F)CC1)C2 [Example 50] | 284 nM | –
35 | CC1(C(=O)NCCN2CC3(CCC(C(=O)Nc4cc(F)cc(C(F)F)c4)CC3)C2)CC1 [Example 49] | 723 nM | –
36 | O=C(Nc1cc(F)cc(Cl)c1)C1CCC2(CC1)CN(Cc1cccc(C(F)(F)F)c1)C2 [Example 24] | 890 nM | < 1000 nM
37 | CC(C)(NC(=O)CN1CC2(CCC(C(=O)Nc3cccc(OC(F)F)c3)CC2)C1)C(F)(F)F [Example 69] | 235 nM | –
38 | CC(C)(NC(=O)CN1CC2(CCC(C(=O)Nc3cc(F)cc(Cl)c3)CC2)C1)C(F)(F)F [Example 16] | 170 nM | < 1000 nM

Row | SMILES | IC50 [1] | IC50 [2]
39 | O=C(CN1CC2(CCC(C(=O)Nc3ccc(F)c(C(F)F)c3)CC2)C1)NC1(C(F)(F)F)CC1 [Example 127] | 492 nM | –
40 | CC1(C(=O)NCCN2CC3(CCC(C(=O)Nc4cc(F)cc(C(F)F)c4)CC3)C2)CCC1 [Example 53] | 447 nM | –
41 | CC1(CCN2CC3(CCC(C(=O)Nc4cc(F)cc(C(F)F)c4)CC3)C2)CCC1 [Example 43] | 300 nM | –
42 | O=C(CN1CC2(CCC(C(=O)Nc3ccc(F)c(Cl)c3)CC2)C1)NC1(C(F)(F)F)CC1 [Example 115] | 219 nM | –
43 | CC(C)(NC(=O)CN1CC2(CCC(C(=O)Nc3cc(F)cc(C(F)F)c3)CC2)C1)C(F)(F)F [Example 30] | 192 nM | < 1000 nM
44 | N#CC1(CN2CC3(CCC(C(=O)Nc4cc(F)cc(OC(F)F)c4)CC3)C2)CCCCC1 [Example 133] | 432 nM | –
45 | CC(C)(C)NC(=O)CN1CC2(CCC(C(=O)Nc3cccc(C(F)F)c3)CC2)C1 [Example 62] | 511 nM | –
46 | CC1(NC(=O)CN2CC3(CCC(C(=O)Nc4cc(F)cc(Cl)c4)CC3)C2)CC1 [Example 59] | 146 nM | –
47 | N#CC1(CN2CC3(CCC(C(=O)Nc4cc(F)cc(Cl)c4)CC3)C2)CCC1 [Example 122] | 750 nM | –
48 | O=C(Nc1cc(F)cc(C(F)F)c1)C1CCC2(CC1)CN(CC(=O)N1CCOCC1)C2 [Example 41] | 846 nM | –
49 | COc1cc(Cl)cc(NC(=O)C2CCC3(CC2)CN(CC(=O)NC(C)(C)C)C3)c1 [Example 159] | 159 nM | –
50 | O=C(Nc1cc(F)cc(C(F)F)c1)C1CCC2(CC1)CN(CCS(=O)(=O)c1ccccc1)C2 [Example 80] | 428 nM | –
51 | O=C(CN1CC2(CCC(C(=O)Nc3ccc(F)c(OC(F)F)c3)CC2)C1)NC1(C(F)(F)F)CC1 [Example 124] | 149 nM | –
52 | CC(C)(C)NC(=O)CN1CC2(CCC(C(=O)Nc3ccc(Cl)cc3)CC2)C1 [Example 3] | 724 nM | < 1000 nM
53 | COc1cc(NC(=O)C2CCC3(CC2)CN(CC(=O)NC(C)(C)C)C3)ccc1Cl [Example 157] | 129 nM | –
54 | O=C(NC12CCC(CC1)CC2)C1CCC2(CC1)CN(CC1(O)CCC(F)(F)CC1)C2 [Example 155] | 606 nM | –
55 | O=C(CN1CC2(CCC(C(=O)Nc3cc(F)cc(OC(F)F)c3)CC2)C1)NC1(C(F)(F)F)CC1 [Example 119] | 366 nM | –
56 | CN(CCN1CC2(CCC(C(=O)Nc3cc(F)cc(C(F)F)c3)CC2)C1)C(=O)C1(C)CC1 [Example 72] | 1040 nM | –

From patent US20250214932A1, “T-TYPE CALCIUM CHANNEL MODULATORS COMPRISING AN AZASPIRONONANE CORE AND METHODS OF USE THEREOF” (Praxis Precision Medicines, Inc., priority 2022, published 2025)
